This test concerns the target T1, AR protein in VCaP cells (Homo sapiens, UniProt P10275).
T1 construct: endogenous in cells; host or cells: VCaP cells
T1 sequence (P10275 1-920): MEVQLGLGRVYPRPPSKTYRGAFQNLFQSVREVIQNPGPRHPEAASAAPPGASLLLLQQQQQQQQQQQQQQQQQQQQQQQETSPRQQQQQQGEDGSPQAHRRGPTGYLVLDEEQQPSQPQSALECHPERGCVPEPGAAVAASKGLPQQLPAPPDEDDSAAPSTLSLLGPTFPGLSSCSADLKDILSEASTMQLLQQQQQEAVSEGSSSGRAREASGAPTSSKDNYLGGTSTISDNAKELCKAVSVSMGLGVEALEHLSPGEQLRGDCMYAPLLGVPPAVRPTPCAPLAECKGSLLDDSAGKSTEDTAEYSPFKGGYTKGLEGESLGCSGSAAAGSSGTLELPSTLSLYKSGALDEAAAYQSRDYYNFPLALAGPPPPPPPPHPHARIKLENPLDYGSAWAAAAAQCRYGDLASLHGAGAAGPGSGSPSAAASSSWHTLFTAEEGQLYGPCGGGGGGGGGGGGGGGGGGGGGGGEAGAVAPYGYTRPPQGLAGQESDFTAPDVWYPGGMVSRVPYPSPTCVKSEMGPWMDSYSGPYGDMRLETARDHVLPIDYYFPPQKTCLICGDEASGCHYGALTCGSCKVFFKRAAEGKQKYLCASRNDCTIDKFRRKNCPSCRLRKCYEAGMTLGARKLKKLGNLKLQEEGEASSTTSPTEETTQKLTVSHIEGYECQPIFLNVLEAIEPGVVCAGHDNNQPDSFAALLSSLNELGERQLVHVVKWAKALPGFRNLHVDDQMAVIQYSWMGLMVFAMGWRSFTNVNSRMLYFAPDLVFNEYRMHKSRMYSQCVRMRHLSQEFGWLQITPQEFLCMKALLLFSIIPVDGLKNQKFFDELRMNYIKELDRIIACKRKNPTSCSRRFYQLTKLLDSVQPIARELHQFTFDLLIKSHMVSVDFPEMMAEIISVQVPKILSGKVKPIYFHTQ
Kind of test: VCAP AR Degradation Assay (AR ELISA, 24 h). Type of test: cell-based. The conditions noted are these: for Y (lowest measured AR level normalized to DMSO control): AR degradation efficiency; for DC50: concentration of compound when AR level = 50% of DMSO control, read-out: DC50. Summed up:
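VCaP cells in DMEM with 8% FBS exposed for 24 h at 37° C to a 10-point, 1:3 series (final top concentration […]; 0.1% DMSO control). Lysate AR measured by sandwich ELISA and normalized to DMSO as percent of control. DC50, EC50 and lowest AR level (Y) from four-parameter logistic fit.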
Background: ELISA stands for enzyme-linked immunosorbent assay.

Regarding `CCc1cc(N2C(=S)N(c3cnc(C#N)c(C(F)(F)F)c3)C(=O)C2(C)C)ccc1OCC[C@@H]1CCN(CC(=O)Nc2cc(NC3CCC(=O)NC3=O)ccc2F)[C@H](C)C1` (stereo partly drawn) [Cmpd 79, 2-((2R,4R)-4-(2-(4-(3-(6-cyano-5-(trifluoromethyl)pyridin-3-yl)-5,5-dimethyl-4-oxo-2-thioxoimidazolidin-1-yl)-2-ethylphenoxy)ethyl)-2-methylpiperidin-1-yl)-N-(5-(2,6-dioxopiperidin-3-ylamino)-2-fluorophenyl)acetamide], the “Y (lowest measured AR level normalized to DMSO control)” value is reported as “** (25%<Y<=35%)” and the DC50 – broadly, the concentration giving 50% degradation – is 100 to 500 nM.
For `CCc1cc(N2C(=S)N(c3cnc(C#N)c(C(F)(F)F)c3)C(=O)C2(C)C)ccc1OCC1CCN(CC(=O)Nc2cccc(NC3CCC(=O)NC3=O)c2)CC1` (stereo not drawn) [Cmpd 80, 2-(4-((4-(3-(6-cyano-5-(trifluoromethyl)pyridin-3-yl)-5,5-dimethyl-4-oxo-2-thioxoimidazolidin-1-yl)-2-ethylphenoxy)methyl)piperidin-1-yl)-N-(3-(2,6-dioxopiperidin-3-ylamino)phenyl)acetamide] the same measures were “** (25%<Y<=35%)” and less than 100 nM.
For `CCc1cc(N2C(=S)N(c3cnc(C#N)c(C(F)(F)F)c3)C(=O)C2(C)C)ccc1OCC1CCN(CC(=O)Nc2cc(Cl)cc(NC3CCC(=O)NC3=O)c2)CC1` (stereo not drawn) [Cmpd 81, N-(3-chloro-5-(2,6-dioxopiperidin-3-ylamino)phenyl)-2-(4-((4-(3-(6-cyano-5-(trifluoromethyl)pyridin-3-yl)-5,5-dimethyl-4-oxo-2-thioxoimidazolidin-1-yl)-2-ethylphenoxy)methyl)piperidin-1-yl)acetamide] the same measures were “** (25%<Y<=35%)” and less than 100 nM.
The like results for `CCc1cc(N2C(=S)N(c3ccc(C#N)c(C(F)(F)F)c3)C(=O)C2(C)C)ccc1OCC[C@H]1CCN(CC(=O)Nc2cc(NC3CCC(=O)NC3=O)ccc2F)[C@H](C)C1` (stereo partly drawn) [Cmpd 82, 2-((2R,4S)-4-(2-(4-(3-(4-cyano-3-(trifluoromethyl)phenyl)-5,5-dimethyl-4-oxo-2-thioxoimidazolidin-1-yl)-2-ethylphenoxy)ethyl)-2-methylpiperidin-1-yl)-N-(5-(2,6-dioxopiperidin-3-ylamino)-2-fluorophenyl)acetamide] were, in that order, “** (25%<Y<=35%)” and 100 to 500 nM.
Take `CCc1cc(N2C(=S)N(c3cnc(C#N)c(C(F)(F)F)c3)C(=O)C23CCC3)ccc1OCCC1CCN([C@@H](C)C(=O)Nc2cccc(NC3CCC(=O)NC3=O)c2)CC1` (stereo partly drawn) [Cmpd 83, (2S)-2-(4-(2-(4-(7-(6-cyano-5-(trifluoromethyl)pyridin-3-yl)-8-oxo-6-thioxo-5,7-diazaspiro[3.4]octan-5-yl)-2-ethylphenoxy)ethyl)piperidin-1-yl)-N-(3-(2,6-dioxopiperidin-3-ylamino)phenyl)propanamide]: the “Y (lowest measured AR level normalized to DMSO control)” value is reported as “* (0<Y<=25%)” and the DC50 was less than 100 nM.
For `CCc1cc(N2C(=S)N(c3cnc(C#N)c(C(F)(F)F)c3)C(=O)C23CCC3)ccc1OCCC1CCN([C@H](C)C(=O)Nc2cccc(NC3CCC(=O)NC3=O)c2)CC1` (stereo partly drawn) [Cmpd 84, (2R)-2-(4-(2-(4-(7-(6-cyano-5-(trifluoromethyl)pyridin-3-yl)-8-oxo-6-thioxo-5,7-diazaspiro[3.4]octan-5-yl)-2-ethylphenoxy)ethyl)piperidin-1-yl)-N-(3-(2,6-dioxopiperidin-3-ylamino)phenyl)propanamide] the same measures were “* (0<Y<=25%)” and less than 100 nM.
For `CCc1cc(N2C(=S)N(c3cnc(C#N)c(C(F)(F)F)c3)C(=O)C23CCC3)ccc1OCCC1CCN([C@@H](C)C(=O)Nc2cc(NC3CCC(=O)NC3=O)ccc2F)CC1` (stereo partly drawn) [Cmpd 85, (2S)-2-(4-(2-(4-(7-(6-cyano-5-(trifluoromethyl)pyridin-3-yl)-8-oxo-6-thioxo-5,7-diazaspiro[3.4]octan-5-yl)-2-ethylphenoxy)ethyl)piperidin-1-yl)-N-(5-(2,6-dioxopiperidin-3-ylamino)-2-fluorophenyl)propanamide] the same measures were “* (0<Y<=25%)” and 100 to 500 nM.
The like results for `CCc1cc(N2C(=S)N(c3cnc(C#N)c(C(F)(F)F)c3)C(=O)C23CCC3)ccc1OCCC1CCN([C@H](C)C(=O)Nc2cc(NC3CCC(=O)NC3=O)ccc2F)CC1` (stereo partly drawn) [Cmpd 86, (2R)-2-(4-(2-(4-(7-(6-cyano-5-(trifluoromethyl)pyridin-3-yl)-8-oxo-6-thioxo-5,7-diazaspiro[3.4]octan-5-yl)-2-ethylphenoxy)ethyl)piperidin-1-yl)-N-(5-(2,6-dioxopiperidin-3-ylamino)-2-fluorophenyl)propanamide] were, in that order, “* (0<Y<=25%)” and 100 to 500 nM.
`CCc1cc(N2C(=S)N(c3cnc(C#N)c(C(F)(F)F)c3)C(=O)C2(C)C)ccc1OC1C[C@H]2CC[C@@H](C1)N2CC(=O)Nc1cccc(NC2CCC(=O)NC2=O)c1` (stereo partly drawn) [Cmpd 87, 2-((1R,3s,5S)-3-(4-(3-(6-cyano-5-(trifluoromethyl)pyridin-3-yl)-5,5-dimethyl-4-oxo-2-thioxoimidazolidin-1-yl)-2-ethylphenoxy)-8-azabicyclo[3.2.1]octan-8-yl)-N-(3-(2,6-dioxopiperidin-3-ylamino)phenyl)acetamide]: the “Y (lowest measured AR level normalized to DMSO control)” value was “*** (35%<Y<50%)” and the DC50 was in the range of 500 to 1000 nM.
For `CCc1cc(N2C(=S)N(c3ccc(C#N)c(C(F)(F)F)c3)C(=O)C2(C)C)ccc1OCCC1(F)CCN(CC(=O)Nc2cccc(NC3CCC(=O)NC3=O)c2)CC1` (stereo not drawn) [Cmpd 88, 2-(4-(2-(4-(3-(4-cyano-3-(trifluoromethyl)phenyl)-5,5-dimethyl-4-oxo-2-thioxoimidazolidin-1-yl)-2-ethylphenoxy)ethyl)-4-fluoropiperidin-1-yl)-N-(3-(2,6-dioxopiperidin-3-ylamino)phenyl)acetamide], the “Y (lowest measured AR level normalized to DMSO control)” value is recorded as “* (0<Y<=25%)” and the DC50 is less than 100 nM.
In the case of `CCc1cc(N2C(=S)N(c3cnc(C#N)c(C(F)(F)F)c3)C(=O)C2(C)C)ccc1OCCC1(F)CCN(CC(=O)Nc2cccc(NC3CCC(=O)NC3=O)c2)CC1` (stereo not drawn) [Cmpd 89, 2-(4-(2-(4-(3-(6-cyano-5-(trifluoromethyl)pyridin-3-yl)-5,5-dimethyl-4-oxo-2-thioxoimidazolidin-1-yl)-2-ethylphenoxy)ethyl)-4-fluoropiperidin-1-yl)-N-(3-(2,6-dioxopiperidin-3-ylamino)phenyl)acetamide], the “Y (lowest measured AR level normalized to DMSO control)” value is on record as “* (0<Y<=25%)” and the DC50 is less than 100 nM.
On to `CCc1cc(N2C(=S)N(c3ccc(C#N)c(C(F)(F)F)c3)C(=O)C2(C)C)ccc1OCCC1(F)CCN(CC(=O)Nc2cc(Cl)cc(NC3CCC(=O)NC3=O)c2)CC1` (stereo not drawn) [Cmpd 90, N-(3-chloro-5-(2,6-dioxopiperidin-3-ylamino)phenyl)-2-(4-(2-(4-(3-(4-cyano-3-(trifluoromethyl)phenyl)-5,5-dimethyl-4-oxo-2-thioxoimidazolidin-1-yl)-2-ethylphenoxy)ethyl)-4-fluoropiperidin-1-yl)acetamide], for which the “Y (lowest measured AR level normalized to DMSO control)” value was “* (0<Y<=25%)” and the DC50 is less than 100 nM.

For the origin of these results see patent US11325889B2, “Substituted 3-((3-aminophenyl)amino)piperidine-2,6-dione compounds, compositions thereof, and methods of treatment therewith” (Celgene Corporation, priority 2018, dated 2022).
